Measured values as given in EP2857388A1, “Azoles containing sulfone” (Grünenthal GmbH, priority 2013, dated 2015).

Target: T1, human B1R (Homo sapiens, UniProt P46663)
T1 construct: expressed in transfected cells; host or cells: CHO K1 cells (Chinese Hamster Ovary), stably transfected
T1 sequence (P46663 1-353): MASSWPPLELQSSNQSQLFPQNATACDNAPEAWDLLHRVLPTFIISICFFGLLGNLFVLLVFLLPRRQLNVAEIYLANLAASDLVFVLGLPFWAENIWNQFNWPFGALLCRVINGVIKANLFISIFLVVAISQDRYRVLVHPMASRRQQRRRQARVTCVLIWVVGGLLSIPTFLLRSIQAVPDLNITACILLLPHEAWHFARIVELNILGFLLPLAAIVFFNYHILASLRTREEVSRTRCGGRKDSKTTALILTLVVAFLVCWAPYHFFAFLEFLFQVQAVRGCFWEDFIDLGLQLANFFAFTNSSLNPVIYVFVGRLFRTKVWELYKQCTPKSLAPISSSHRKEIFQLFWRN
Test: Functional assay at bradykinin receptor 1 (B1R): Ca2+ fluorescence (Fluo-4) in FLIPR/Novostar, antagonist mode
Format: cell-based
Conditions: test substance 10 µM; CHO K1 cells stably transfected with human B1R gene (hB1R-Zellen); agonist Lys-Des-Arg9-Bradykinin at EC80; % inhibition relative to maximal achievable inhibition; read-out: % Inhibierung (human B1R) bei 10 µM
Procedure, shortened: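 CHO K1 cells stably expressing human B1R were loaded with Fluo-4 and preincubated 6–20 min with test compound before Lys-Des-Arg9-bradykinin at its EC80. Peak fluorescence (ex 488/em 540 nm) gave % inhibition versus maximal inhibition; IC50 from several concentrations, n=2 or 3.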

In the case of `COc1cc(C)c(S(=O)(=O)Cc2noc(CC(=O)N3CCC4(CCN(C)C4)C3)n2)c(C)c1` (stereo not shown) [CC-130, 2-[3-[[(4-Methoxy-2,6-dimethyl-phenyl)sulfonyl]-methyl]-[1,2,4]oxadiazol-5-yl]-1-(2-methyl-2,8-diazaspiro[4.4]nonan-8-yl)-ethanon], the inhibition at 10 µM is reported as 99%.

`COc1cc(C)c(S(=O)(=O)Cc2noc(CC(=O)N3CCC(N4CCN(C)CC4)CC3)n2)c(C)c1` [CC-131, 2-[3-[[(4-Methoxy-2,6-dimethyl-phenyl)sulfonyl]-methyl]-[1,2,4]oxadiazol-5-yl]-1-[4-(4-methyl-piperazin-1-yl)-piperidin-1-yl]-ethanon] gave an inhibition at 10 µM of 100%.

For `COc1cc(C)c(S(=O)(=O)Cc2noc(CC(=O)N3CCN(c4ccncc4)CC3)n2)c(C)c1` [CC-133, 2-[3-[[(4-Methoxy-2,6-dimethyl-phenyl)sulfonyl]-methyl]-[1,2,4]oxadiazol-5-yl]-1-(4-pyridin-4-yl-piperazin-1-yl)-ethanon], the inhibition at 10 µM was 100%.

In the case of `COc1cc(C)c(S(=O)(=O)Cc2noc(CC(=O)N3CCC4(CC3)CCN(c3ccncc3)C4)n2)c(C)c1` [CC-134, 2-[3-[[(4-Methoxy-2,6-dimethyl-phenyl)sulfonyl]-methyl]-[1,2,4]oxadiazol-5-yl]-1-(3-pyridin-4-yl-3,8-diazaspiro[4.5]decan-8-yl)-ethanon], the inhibition at 10 µM is reported as 100%.

For `COc1cc(C)c(S(=O)(=O)Cc2noc(CC(=O)N3[C@@H]4CC[C@H]3CC(Oc3ccncc3)C4)n2)c(C)c1` (stereo partly drawn) [CC-135, 2-[3-[[(4-Methoxy-2,6-dimethyl-phenyl)sulfonyl]-methyl]-[1,2,4]oxadiazol-5-yl]-1-[(1S, 5R)-3-pyridin-4-yloxy-8-azabicyclo[3.2.1]octan-8-yl]-ethanon], the inhibition at 10 µM was 98%.

In the case of `COc1cc(C)c(S(=O)(=O)Cc2noc(C(=O)N3CCN(c4ccncc4)CC3)n2)c(C)c1` [CC-136, [3-[[(4-Methoxy-2,6-dimethyl-phenyl)sulfonyl]-methyl]-[1,2,4]oxadiazol-5-yl]-(4-pyridin-4-yl-piperazin-1-yl)-methanon], the inhibition at 10 µM is reported as 100%.

Compound `Cc1cccc(Cl)c1S(=O)(=O)Cc1noc(C(=O)N2CCN(c3ccncc3)CC2)n1` [CC-137, [3-[[(2-Chlor-6-methyl-phenyl)sulfonyl]-methyl]-[1,2,4]oxadiazol-5-yl]-(4-pyridin-4-yl-piperazin-1-yl)-methanon] has an inhibition at 10 µM of 99%.

`Cc1cccc(Cl)c1S(=O)(=O)Cc1noc(C(=O)N2CCC(N3CCN(C)CC3)CC2)n1` [CC-138, [3-[[(2-Chlor-6-methyl-phenyl)sulfonyl]-methyl]-[1,2,4]oxadiazol-5-yl]-[4-(4-methyl-piperazin-1-yl)-piperidin-1-yl]-methanon] showed an inhibition at 10 µM of 95%.

Compound `COc1cc(C)c(S(=O)(=O)Cc2noc(C(=O)N3CCC4(CC3)CCN(c3ccncc3)C4)n2)c(C)c1` [CC-139, [3-[[(4-Methoxy-2,6-dimethyl-phenyl)sulfonyl]-methyl]-[1,2,4]oxadiazol-5-yl]-(3-pyridin-4-yl-3,8-diazaspiro[4.5]decan-8-yl)-methanon] has an inhibition at 10 µM of 100%.

`Cc1cc(S(=O)(=O)Cc2noc(C(=O)N3CCC(N4CCN(C)CC4)CC3)n2)c(C)cc1Cl` [CC-141, [3-[[(4-Chlor-2,5-dimethyl-phenyl)sulfonyl]-methyl]-[1,2,4]oxadiazol-5-yl]-[4-(4-methyl-piperazin-1-yl)-piperidin-1-yl]-methanon] was tested, and the inhibition at 10 µM was 99%.

`Cc1cc(S(=O)(=O)Cc2noc(C(=O)N3CCC4(CCN(C)C4)C3)n2)c(C)cc1Cl` (stereo not shown) [CC-142, [3-[[(4-Chlor-2,5-dimethyl-phenyl)sulfonyl]-methyl]-[1,2,4]oxadiazol-5-yl]-(2-methyl-2,8-diaza-spiro[4.4]nonan-8-yl)-methanon] gave an inhibition at 10 µM of 99%.

For `Cc1cccc(Cl)c1S(=O)(=O)Cc1noc(C(=O)N2CCC3(CCN(C)C3)C2)n1` (stereo not shown) [CC-143, [3-[[(2-Chlor-6-methyl-phenyl)sulfonyl]-methyl]-[1,2,4]oxadiazol-5-yl]-(2-methyl-2,8-diazaspiro-[4.4]nonan-8-yl)-methanon], the inhibition at 10 µM was 82%.

Work on `Cc1cc(S(=O)(=O)Cc2noc(C(=O)N3CCN(c4ccncc4)CC3)n2)c(C)cc1Cl` [CC-144, [3-[[(4-Chlor-2,5-dimethyl-phenyl)sulfonyl]-methyl]-[1,2,4]oxadiazol-5-yl]-(4-pyridin-4-yl-piperazin-1-yl)-methanon] yielded an inhibition at 10 µM of 100%.

Compound `Cc1cccc(Cl)c1S(=O)(=O)Cc1noc(C(=O)N2CCC3(CC2)CCN(c2ccncc2)C3)n1` [CC-145, [3-[[(2-Chlor-6-methyl-phenyl)sulfonyl]-methyl]-[1,2,4]oxadiazol-5-yl]-(3-pyridin-4-yl-3,8-diazaspiro[4.5]decan-8-yl)-methanon] has an inhibition at 10 µM of 100%.

Compound `Cc1cc(S(=O)(=O)Cc2noc(C(=O)N3CCC4(CC3)CCN(c3ccncc3)CC4)n2)c(C)cc1Cl` [CC-146, [3-[[(4-Chlor-2,5-dimethyl-phenyl)sulfonyl]-methyl]-[1,2,4]oxadiazol-5-yl]-(9-pyridin-4-yl-3,9-diazaspiro[5.5]undecan-3-yl)-methanon] has an inhibition at 10 µM of 100%.

`COc1cc(C)c(S(=O)(=O)Cc2noc(C(=O)N3CCC4(CCN(C)C4)C3)n2)c(C)c1` (stereo not shown) [CC-147, [3-[[(4-Methoxy-2,6-dimethyl-phenyl)sulfonyl]-methyl]-[1,2,4]oxadiazol-5-yl]-(2-methyl-2,8-diazaspiro[4.4]nonan-8-yl)-methanon] gave an inhibition at 10 µM of 100%.

With `Cc1cccc(Cl)c1S(=O)(=O)Cc1noc(C(=O)N2CCC3(CC2)CCN(c2ccncc2)CC3)n1` [CC-148, [3-[[(2-Chlor-6-methyl-phenyl)sulfonyl]-methyl]-[1,2,4]oxadiazol-5-yl]-(9-pyridin-4-yl-3,9-diazaspiro[5.5]undecan-3-yl)-methanon] the inhibition at 10 µM was 100%.

`COc1cc(C)c(S(=O)(=O)Cc2noc(C(=O)N3[C@@H]4CC[C@H]3CC(Oc3ccncc3)C4)n2)c(C)c1` (stereo partly drawn) [CC-149, [3-[[(4-Methoxy-2,6-dimethyl-phenyl)sulfonyl]-methyl]-[1,2,4]oxadiazol-5-yl]-[(1S,5R)-3-pyridin-4-yloxy-8-azabicyclo[3.2.1]octan-8-yl]-methanon] gave an inhibition at 10 µM of 100%.

Compound `Cc1cccc(Cl)c1S(=O)(=O)Cc1noc(C(=O)N2C3CCC2CC(Oc2ccncc2)C3)n1` [CC-150, [3-[[(2-Chlor-6-methyl-phenyl)sulfonyl]-methyl]-[1,2,4]oxadiazol-5-yl]-[(1S,5R)-3-pyridin-4-yloxy-8-azabicyclo[3.2.1]octan-8-yl]-methanon] has an inhibition at 10 µM of 100%.

With `Cc1cc(S(=O)(=O)Cc2noc(C(=O)N3CCC4(CC3)CCN(c3ccncc3)C4)n2)c(C)cc1Cl` [CC-152, [3-[[(4-Chlor-2,5-dimethyl-phenyl)sulfonyl]-methyl]-[1,2,4]oxadiazol-5-yl]-(3-pyridin-4-yl-3,8-diazaspiro[4.5]decan-8-yl)-methanon] the inhibition at 10 µM was 100%.

Compound `COc1cc(C)c(S(=O)(=O)Cc2noc(CC(=O)N3CCC(Cc4ccncc4)CC3(C)C)n2)c(C)c1` (stereo not shown) [CC-153, 1-[2,2-Dimethyl-4-(pyridin-4-yl-methyl)-piperidin-1-yl]-2-[3-[[(4-methoxy-2,6-dimethyl-phenyl)-sulfonyl]-methyl]-[1,2,4]oxadiazol-5-yl]-ethanon] has an inhibition at 10 µM of 92%.

Work on `COc1cc(C)c(S(=O)(=O)Cc2cc(C)n(CC(=O)NC3CCC(N(C)C)CC3)n2)c(C)c1` (stereo not shown) [CC-154, N-(4-Dimethylamino-cyclohexyl)-2-[3-[[(4-methoxy-2,6-dimethyl-phenyl)sulfonyl]-methyl]-5-methyl-1 H-pyrazol-1-yl]-acetamid] yielded an inhibition at 10 µM of 80%.
